In patent US10555987B2, “GHRH agonists for the treatment of ischemic disorders” (UNIVERSITY OF MIAMI, priority 2012, dated 2020):
Non-standard residues stand in square brackets, D forms with d. Residues, ends and D or L forms follow the SMILES beside them. NMeY = CN[C@@H](Cc1ccc(O)cc1)C(=O)O; Nle = CCCC[C@H](N)C(=O)O; Orn = NCCC[C@H](N)C(=O)O; Abu = CC[C@H](N)C(=O)O; Aoc = NCCCCCCCC(=O)O

Assays:
[1] = tested on: myocardial infarction (Fisher-344 rats); assay: Serial echocardiography after MI, compared to JI-38 (Example 15, Table 15); format: in vivo, rat; parameters: key to LVEDD: Left Ventricular End Diastolic Diameter / LVESD: Left Ventricular End Systolic Diameter / VD: Ventricular Diastole / VS: Ventricular Systole / EF: Ejection Fraction / FS: Fraction Shortening: ↓: downward arrow denotes lower than JI-38; ↑: upward arrow denotes greater than JI-38; =denotes same as JI-38; ⬇⬇: double arrow denotes greater effect; ⬆⬆: double arrow denotes greater effect; settings: in comparison to JI-38
Description: Echocardiographic measurements were obtained at baseline, 2 days, 1, 2 and 4 weeks. Echocardiographic assessments were performed in anesthetized rats (2% isoflurane inhalation) using a Vevo-770 echocardiogram (Visual Sonics Inc., Toronto, Ontario, Canada) equipped with a 17.5-MHz transducer. Cardiac dimensions: LV end diastolic (LVEDD), end systolic (LVESD) diameters and fractional shortening (FS) were recorded from M-mode images using averaged measurements from 3 to 5 consecutive cardiac cycles according to the American Society of Echocardiography. Ejection fraction (EF) was calculated from bi-dimensional long-axis parasternal views taken through the infarcted area. All images were analyzed using Vevo 770 3.0.0 software (Visual Sonics Inc., Toronto, Ontario, Canada).
(§1) Myocardial infarction (MI) was induced by permanent ligation of the left coronary artery in female 6-month-old Fisher-344 rats. Following experimental myocardial infarction (MI), rats were randomly assigned to receive either placebo, JI-38, or one of the following new analogs of GHRH: MR-30 l(P-21301), MR-303(P-21303), MR-356(P-20356), MR-502(25502), MR-350(P-20350), MR-36 l(P-20361), MR-367(P-20367), MR-403(P-27403), MR-404(P-27404), and MR-409(P-27409) (10 rats per each group). The GHRH peptide agonists were adminsistered starting 2 hours post-surgery, 1 week, 2 week, and 4 week intervals. All treatment was given subcutaneously twice daily. Cardiac performance was assessed by serial echocardiography and hemodynamic analysis derived from pressure-volume loops as described before.
The echocardiographic experiments are shown in FIGS. 10-15 and the results are summarized in Table 15 (results were expressed in comparison to JI-38; downward arrow denotes lower than JI-38; upward arrow denotes greater than JI-38; =denotes same as JI-38; and double arrow denotes greater effect).

[2] = tested on: GH release; assay: In vivo endocrine activity, GH release after subcutaneous administration (Table 9); settings: rat, subcutaneous (s.c.) injection
Description: Subcutaneous Administration. Adult male rats were used and anesthetized with pentobarbital (6 mg/100 g, b.w.), by i.p. injection. […] Blood samples were taken from the jugular vein 5, 15 and/or 30 minutes after the injection. The blood samples were centrifuged, plasma was removed and the GH level was measured byELISA. The results are summarized in terms of potency in Table 9.

[3] = biological target: T1, GHRH receptor (Homo sapiens, UniProt Q02643); assay: GHRH receptor binding, competition with 125I-labeled JV-1-42, human pituitary membrane homogenates (Table 7); parameters: Normal human pituitaries were purchased from the National Hormone and Peptide Program; tissue National Hormone and Peptide Program (A.F. Parlow, Harbor-UCLA Medical Center, Torrance, Calif.); host or cells: normal human pituitary, membrane fraction; settings: JI-38 = 1, Table 7
T1 sequence (Q02643 23-423): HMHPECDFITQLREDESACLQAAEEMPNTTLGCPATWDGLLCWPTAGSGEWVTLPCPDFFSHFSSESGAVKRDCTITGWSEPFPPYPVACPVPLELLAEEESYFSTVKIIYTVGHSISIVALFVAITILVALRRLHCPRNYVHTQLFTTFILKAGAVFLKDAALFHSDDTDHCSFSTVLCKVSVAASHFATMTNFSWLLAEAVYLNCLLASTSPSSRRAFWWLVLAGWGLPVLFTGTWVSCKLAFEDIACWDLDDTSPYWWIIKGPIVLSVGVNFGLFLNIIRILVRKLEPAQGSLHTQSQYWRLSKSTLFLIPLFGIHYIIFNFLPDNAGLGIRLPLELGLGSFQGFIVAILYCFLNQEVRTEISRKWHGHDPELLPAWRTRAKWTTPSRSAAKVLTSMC
Text: Normal human pituitaries were purchased from the National Hormone and Peptide Program (A.F. Parlow, Los Angeles, County Harbor-UCLA Medical Center, Torrance, Calif.).

[4] = tested on: myocardial infarction (Fisher-344 rats); assay: Hemodynamic analysis (pressure-volume loops), body and heart weight after MI, compared to JI-38 (Example 15, Table 16); format: in vivo, rat; parameters: key to ESP (End-Systolic Pressure) / EDP (End-Diastolic Pressure) / ESV (End-Systolic Volume) / PRSW (Preload Recruitable Stroke Work) / Ees (End-systolic Elastance) / dP/dt max (peak rate of the pressure rise) / dP/dt max_EDV / dP/dt min / TAU (relaxation time constant calculated by Weiss method) / SV (Stroke Volume) / CO (Cardiac Output) / SW (Stroke Work) / EF / Ea/Ees / Ea (arterial Elastance): ↓: downward arrow denotes lower than JI-38; ↑: upward arrow denotes greater than JI-38; =denotes same as JI-38; ⬇⬇: double arrow denotes greater effect; ⬆⬆: double arrow denotes greater effect; settings: rat MI model, s.c. twice daily; pressure-volume loops; expressed in comparison to JI-38
Description: Rats were anesthetized by intramuscular injection of a mixture of ketamine (100 mg/kg), xylazine (20 mg/kg) and acepromazine (10 mg/kg). A 2-F micromanometer tipped catheter (SPR-838, Millar Instruments, Houston, Tex.) was inserted into the right carotid artery and advanced retrograde into the left ventricle. Measurements were calibrated by injecting a hypertonic saline (15%) bolus to determine extra-ventricular conductance; relative volume units were converted to actual volume using the cuvette calibration method. All analyses were performed using PVAN 3.0 software (Millar Instruments, Houston, Tex.).
as §1
The hemodynamic studies are shown in FIGS. 16-33 and the results are summarized in Table 16 (results were expressed in comparison to JI-38; downward arrow denotes lower than JI-38; upward arrow denotes greater than JI-38; =denotes same as JI-38; and double arrow denotes greater effect).

[5] = tested on: GH release; assay: In vivo endocrine activity, GH release after intravenous administration (Table 8); settings: rat, i.v. injection
Description: In vivo tests on endocrine activity of new GHRH agonists (Intravenous administration). For in vivo tests based on intravenous administration, adult male Sprague-Dawley rats were anesthetized with pentobarbital (6 mg/100/g, b.w.), and GHRH agonists were injected 20 minutes after the injection of pentobarbital. Blood samples were taken from the jugular vein (pretreated level), immediately after hGHRH(1-29)NH2 injection (as a control) or after hGHRH analogs injection. Blood samples were taken from the jugular vein 5, 15 and 30 minutes after the injection. The blood samples were centrifuged, plasma was removed and the GH level was measured by ELISA.

Structure (SMILES)	EF: Ejection Fraction [1]	FS: Fraction Shortening [1]	LVEDD: Left Ventricular End Diastolic Diameter [1]	LVESD: Left Ventricular End Systolic Diameter [1]	VD: Ventricular Diastole [1]	VS: Ventricular Systole [1]	GH releasing potency relative to JI-38 (=1) ([2]; 15 min after)	GH releasing potency relative to JI-38 (=1) ([2]; 30 min after)	Relative affinity (Binding potency) vs JI-38 [3]	CO (Cardiac Output) [4]	EDP (End-Diastolic Pressure) [4]	EF [4]	ESP (End-Systolic Pressure) [4]	ESV (End-Systolic Volume) [4]	Ea (arterial Elastance) [4]	Ea/Ees [4]	Ees (End-systolic Elastance) [4]	PRSW (Preload Recruitable Stroke Work) [4]	SV (Stroke Volume) [4]	SW (Stroke Work) [4]	also measured
CCCC[C@H](NC(=O)[C@@H](NC(=O)[C@H](CC(=O)O)NC(=O)[C@H](CCC(N)=O)NC(=O)[C@H](CC(C)C)NC(=O)[C@H](CC(C)C)NC(=O)[C@H](CCCN)NC(=O)[C@H](CCCNC(=N)N)NC(=O)[C@H](C)NC(=O)[C@H](CO)NC(=O)[C@H](CC(C)C)NC(=O)[C@H](CCC(N)=O)NC(=O)[C@H](CC)NC(=O)[C@H](CC(C)C)NC(=O)[C@@H](NC(=O)[C@H](CCCN)NC(=O)[C@H](CCCNC(=N)N)NC(=O)[C@H](Cc1ccc(O)cc1)NC(=O)[C@H](CO)NC(=O)[C@H](CC(N)=O)NC(=O)[C@@H](NC(=O)[C@H](Cc1ccccc1)NC(=O)[C@@H](NC(=O)[C@H](C)NC(=O)[C@H](CC(=O)O)NC(=O)[C@H](C)NC(=O)[C@H](Cc1ccc(O)cc1)NC)[C@@H](C)CC)[C@@H](C)O)C(C)C)[C@@H](C)CC)C(=O)N[C@@H](CC(=O)O)C(=O)N[C@@H](CCCNC(=N)N)C(=O)NCCCCCCCC(N)=O [Peptide P-21301, [N—Me-Tyr^1, Orn^12, Abu^15, Orn^21, Nle^27, Asp^28, Amc^30]hGHRH(1-30)NH2] (H-[NMeY]ADAIFTNSYR[Orn]VL[Abu]QLSAR[Orn]LLQDI[Nle]DR[Aoc]-NH2)	↓	=	↑	↑	↑	↑	0.41	0.74	1.45	=	↑	↓	↓	↑	=	↑	=	=	=	↓	TAU (relaxation time constant calculated by Weiss method) [4]: =; dP/dt max (peak rate of the pressure rise) [4]: ↓; dP/dt max_EDV [4]: ↓; dP/dt min [4]: =; GH releasing potency in vivo relative to JI-38 (=1) ([5]; 5 min after): 0.79; GH releasing potency in vivo relative to JI-38 (=1) ([5]; 15 min after): 0.92; GH releasing potency in vivo relative to JI-38 (=1) ([5]; 30 min after): 1.00
CCCC[C@H](NC(=O)[C@@H](NC(=O)[C@H](CC(=O)O)NC(=O)[C@H](CCC(N)=O)NC(=O)[C@H](CC(C)C)NC(=O)[C@H](CC(C)C)NC(=O)[C@H](CCCN)NC(=O)[C@H](CCCNC(=N)N)NC(=O)[C@H](C)NC(=O)[C@H](CO)NC(=O)[C@H](CC(C)C)NC(=O)[C@H](CCC(N)=O)NC(=O)[C@H](CC)NC(=O)[C@H](CC(C)C)NC(=O)[C@@H](NC(=O)[C@H](CCCN)NC(=O)[C@H](CCCNC(=N)N)NC(=O)[C@H](Cc1ccc(O)cc1)NC(=O)[C@H](CO)NC(=O)[C@H](CC(N)=O)NC(=O)[C@@H](NC(=O)[C@H](Cc1ccccc1)NC(=O)[C@@H](NC(=O)[C@H](C)NC(=O)[C@H](CC(=O)O)NC(=O)[C@@H](C)NC(=O)[C@H](Cc1ccc(O)cc1)NC)[C@@H](C)CC)[C@@H](C)O)C(C)C)[C@@H](C)CC)C(=O)N[C@@H](CC(=O)O)C(=O)N[C@@H](CCCNC(=N)N)C(=O)NCCCCCCCC(N)=O [Peptide P-21303, [N—Me-Tyr^1, D-Ala^2, Orn^12, Abu^15, Orn^21, Nle^27, Asp^28, Amc^30]hGHRH(1-30)NH2] (H-[NMeY][dA]DAIFTNSYR[Orn]VL[Abu]QLSAR[Orn]LLQDI[Nle]DR[Aoc]-NH2)	↓	=	=	=	↑	↑	0.95	1.45	2.32	=	↑	↑	↓	=	=	=	↓	↓	=	=	TAU (relaxation time constant calculated by Weiss method) [4]: =; dP/dt max (peak rate of the pressure rise) [4]: ↓; dP/dt max_EDV [4]: ↓; dP/dt min [4]: =; GH releasing potency in vivo relative to JI-38 (=1) ([5]; 5 min after): 0.79; GH releasing potency in vivo relative to JI-38 (=1) ([5]; 15 min after): 1.14; GH releasing potency in vivo relative to JI-38 (=1) ([5]; 30 min after): 0.81
